From patent publication US11414431B2, “Substituted pyrazolo[1,5-a]pyrimidines as TYK2 inhibitors” (Nimbus Lakshmi, Inc., priority 2018, dated 2022)

Test system: IL-12 induced STAT4 phosphorlyation mediated by TYK2/JAK2
Assay: IL-12 Induced pSTAT4 in Human PBMC
Format: cell-based
Conditions: 1.7 ng/mL IL-12 for 30 minutes
Method in brief: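 pSTAT4 and total STAT4 quantified by MSD in lysates of cryopreserved human PBMC after 30-minute stimulation with 1.7 ng/mL IL-12 (final). Compound was added 1 hr beforehand at 37° C, 0.1% DMSO final.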

| SMILES | IC50 | IC50 (0.5 h) |
| --- | --- | --- |
| CNc1cc(Nc2cccn([C@H]3C[C@H](OC)C3)c2=O)nc2c(C(=O)N[C@H]3CC[C@@H]3OC)cnn12 [Compound I-255] | < 0.1 µM |  |
| CNc1cc(-c2cn(C3CCCC3)c3ncccc23)nc2c(C(=O)N[C@@H]3CCC3(F)F)cnn12 [Compound I-681] | < 0.1 µM |  |
| CNc1cc(-c2cn(CC(=O)N3CCC3)c3ncccc23)nc2c(C(=O)N[C@H]3CC[C@@H]3OC)cnn12 [Compound I-929] | 0.1 to 0.5 µM |  |
| CNc1cc(-c2cn([C@@H]3COC[C@H]3O)c3ncccc23)nc2c(C(=O)N[C@@H]3CC[C@H]3OC)cnn12 [Compound I-629] | < 0.1 µM |  |
| CNc1cc(-c2cn([C@H]3CCOC[C@@H]3F)c3ncccc23)nc2c(C(=O)N[C@H]3CC[C@H]3O)cnn12 [Compound I-916] | 0.1 to 0.5 µM |  |
| CNc1cc(-c2cn(CCOC)c3ncccc23)nc2c(C(=O)N[C@H]3CC[C@@H]3OC)cnn12 [Compound I-923] | < 0.1 µM |  |
| CNc1cc(Nc2cccn([C@H]3[C@@H]4COC[C@@H]43)c2=O)nc2c(C(=O)N[C@H]3CC[C@H]3F)cnn12 [Compound I-204] | < 0.1 µM |  |
| CNc1cc(Nc2cccn(-c3ncccc3F)c2=O)nc2c(C(=O)N[C@@H]3CC[C@H]3OC)cnn12 [Compound I-266] | < 0.1 µM |  |
| CNc1cc(-c2cn(CC(=O)N3CCOCC3)c3ncccc23)nc2c(C(=O)N[C@H]3CC[C@@H]3OC)cnn12 [Compound I-963] | 0.1 to 0.5 µM |  |
| CNc1cc(Nc2cccn([C@H]3C[C@@H]3F)c2=O)nc2c(C(=O)NC3CC[C@@H]3F)cnn12 (stereo partly drawn) [Compound I-148, N-((trans-1,2)-2-Fluorocyclobutyl)-5-((1-((1S,2S)-2-fluorocyclopropyl)-2-oxo-1,2-dihydropyridin-3-yl)amino)-7-(methylamino)pyrazolo[1,5-a]pyrimidine-3-carboxamide] |  | < 0.1 µM |
| CNc1cc(Nc2cccn([C@@H]3CCOC[C@@H]3OC)c2=O)nc2c(C(=O)N[C@@H]3CC[C@@H]3F)cnn12 [Compound I-235] | < 0.1 µM |  |
| CNc1cc(-c2cn([C@H]3CCC[C@H]3F)c3ncccc23)nc2c(C(=O)NC3COC[C@H]3O)cnn12 (stereo partly drawn) [Compound I-721, 5-(1-((1S,2R)-2-Fluorocyclopentyl)-1H-pyrrolo[2,3-b]pyridin-3-yl)-N-((cis-3,4)-4-hydroxytetrahydrofuran-3-yl)-7-(methylamino)pyrazolo[1,5-a]pyrimidine-3-carboxamide] |  | < 0.1 µM |
| CNc1cc(-c2cnc3n([C@H]4COC[C@@H]4O)cccc2-3)nc2c(C(=O)N[C@@H]3CC[C@H]3OC)cnn12 [Compound I-878] | < 0.1 µM |  |
| CNc1cc(-c2cn([C@H]3CCN(C)C3)c3ncccc23)nc2c(C(=O)NC3CC[C@@H]3OC)cnn12 (some centres unmarked) [Compound I-618] | < 0.1 µM |  |
| CNc1cc(-c2cnc3n([C@H]4COC[C@@H]4O)cccc2-3)nc2c(C(=O)NC3CC[C@@H]3F)cnn12 (stereo partly drawn) [Compound I-826, N-((trans-1,2)-2-Fluorocyclobutyl)-5-(7-((3S,4R)-4-hydroxytetrahydrofuran-3-yl)-7H-pyrrolo[2,3-b]pyridin-3-yl)-7-(methylamino)pyrazolo[1,5-a]pyrimidine-3-carboxamide] |  | < 0.1 µM |
| CNc1cc(-c2cn([C@H]3C[C@@H](O)C3)c3ncccc23)nc2c(C(=O)N[C@H]3CC[C@@H]3OC)cnn12 [Compound I-606] | < 0.1 µM |  |
| CNc1cc(Nc2cccn([C@H]3C[C@@H](OC)C3)c2=O)nc2c(C(=O)NC3CC[C@@H]3OC)cnn12 (some centres unmarked) [Compound I-780] | < 0.1 µM |  |
| CNc1cc(Nc2cccn([C@@H]3CC[C@H]3OC)c2=O)nc2c(C(=O)N[C@H]3CC[C@@H]3O)cnn12 [Compound I-20, N-((1S,2S)-2-Hydroxycyclobutyl)-5-((1-((1R,2R)-2-methoxycyclobutyl)-2-oxo-1,2-dihydropyridin-3-yl)amino)-7-(methylamino)pyrazolo[1,5-a]pyrimidine-3-carboxamide] |  | < 0.1 µM |
| CNc1cc(Nc2cccn(C3CCC[C@@](C)(OC)C3)c2=O)nc2c(C(=O)N[C@@H]3C[C@@H]3F)cnn12 (some centres unmarked) [Compound I-130] | < 0.1 µM |  |
| CNc1cc(-c2cn([C@H]3COC[C@@H]3OC)c3ccccc23)nc2c(C(=O)NC3CC[C@@H]3OC)cnn12 (some centres unmarked) [Compound I-741] | < 0.1 µM |  |
| CNc1cc(Nc2cccn([C@H]3CCC[C@H](OC)C3)c2=O)nc2c(C(=O)N[C@H]3CC[C@@H]3F)cnn12 [Compound I-231] | < 0.1 µM |  |
| CNc1cc(-c2cn([C@@H]3CN(C)C[C@H]3F)c3ncccc23)nc2c(C(=O)NC3CC[C@@H]3OC)cnn12 (some centres unmarked) [Compound I-642] | < 0.1 µM |  |
| CNc1cc(-c2cn(C(C)C)c3nnccc23)nc2c(C(=O)N[C@@H]3CC[C@H]3OC)cnn12 [Compound I-1009] | < 0.1 µM |  |
| CNc1cc(-c2cn([C@H]3CCOC[C@H]3OC)c3ncccc23)nc2c(C(=O)NC3CC[C@@H]3OC)cnn12 (stereo partly drawn) [Compound I-665, N-((trans-1,2)-2-Methoxycyclobutyl)-5-(1-((3S,4S)-3-methoxytetrahydro-2H-pyran-4-yl)-1H-pyrrolo[2,3-b]pyridin-3-yl)-7-(methylamino)pyrazolo[1,5-a]pyrimidine-3-carboxamide] |  | < 0.1 µM |
| CNc1cc(-c2cnc3n([C@@H]4COC[C@H]4O)cccc2-3)nc2c(C(=O)N[C@H]3CCC3(F)F)cnn12 [Compound I-902] | < 0.1 µM |  |
| CNc1cc(Nc2cccn([C@H]3[C@@H]4COC[C@@H]43)c2=O)nc2c(C(=O)NC3CC[C@@H]3F)cnn12 (some centres unmarked) [Compound I-206] | < 0.1 µM |  |
| CNc1cc(-c2cn([C@H]3COC[C@@H]3O)c3ncccc23)nc2c(C(=O)N[C@H]3CC[C@@H]3OC)cnn12 [Compound I-631] | < 0.1 µM |  |

| SMILES | IC50 | IC50 (0.5 h) |
| --- | --- | --- |
| CNc1cc(Nc2cccn([C@H]3[C@@H]4COC[C@@H]43)c2=O)nc2c(C(=O)N[C@@H]3CC[C@@]3(C)OC)cnn12 [Compound I-410] | < 0.1 µM |  |
| CNc1cc(-c2cnc3n([C@@H]4COC[C@H]4O)cccc2-3)nc2c(C(=O)NC3CCC3(F)F)cnn12 (some centres unmarked) [Compound I-901] | < 0.1 µM |  |
| CNc1cc(-c2cnc3n([C@@H]4COC[C@H]4OC)cccc2-3)nc2c(C(=O)NC3CC[C@@H]3OC)cnn12 (some centres unmarked) [Compound I-883] | < 0.1 µM |  |
| CNc1ccc(-c2cc(NC)n3ncc(C(=O)NC4CC[C@H]4O)c3n2)n2ccnc12 (some centres unmarked) [Compound I-484] | < 0.1 µM |  |
| CNc1cc(-c2cn([C@@H]3CCC4(C3)OCCO4)c3ncccc23)nc2c(C(=O)N[C@H]3CC[C@@H]3OC)cnn12 [Compound I-806] | < 0.1 µM |  |
| CNc1cc(-c2cn([C@H]3COC[C@H]3F)c3ncccc23)nc2c(C(=O)NC3CC[C@H]3O)cnn12 (some centres unmarked) [Compound I-573] | < 0.1 µM |  |
| CNc1cc(-c2cn([C@@H]3CCC4(C3)OCCO4)c3ncccc23)nc2c(C(=O)NC3CC[C@@H]3OC)cnn12 (some centres unmarked) [Compound I-672] | < 0.1 µM |  |
| CNc1cc(-c2cn([C@H]3CCOC[C@@H]3F)c3ncccc23)nc2c(C(=O)NC3CC[C@@H]3OC)cnn12 (some centres unmarked) [Compound I-651] | < 0.1 µM |  |
| CNc1cc(-c2cn([C@@H]3CCOC[C@@H]3OC)c3ncccc23)nc2c(C(=O)NC3CC[C@@H]3OC)cnn12 (some centres unmarked) [Compound I-668] | < 0.1 µM |  |
| CNc1cc(-c2cnc3n(CC(C)(C)O)cccc2-3)nc2c(C(=O)N[C@H]3CC[C@@H]3OC)cnn12 [Compound I-983] | < 0.1 µM |  |
| CNc1cc(Nc2cccn([C@@H]3C[C@H]3OC)c2=O)nc2c(C(=O)N[C@H]3CC[C@@H]3F)cnn12 [Compound I-155] | < 0.1 µM |  |
| CNc1cc(Nc2cccn([C@@H]3CCC[C@@H]3O)c2=O)nc2c(C(=O)N[C@@H]3CC[C@H]3F)cnn12 [Compound I-181] | < 0.1 µM |  |
| CNc1cc(-c2cn([C@H]3C[C@@H](COC)C3)c3ncccc23)nc2c(C(=O)NC3CC[C@H]3O)cnn12 (some centres unmarked) [Compound I-912] | < 0.1 µM |  |
| CO[C@H]1CCC1NC(=O)c1cnn2c(N)cc(-c3cnc4n([C@H]5COC[C@@H]5OC)cccc3-4)nc12 (some centres unmarked) [Compound I-999] | 0.1 to 0.5 µM |  |
| CNc1cc(-c2cn([C@@H]3CCOC[C@H]3F)c3ncccc23)nc2c(C(=O)NC3CC[C@@H]3OC)cnn12 (some centres unmarked) [Compound I-652] | < 0.1 µM |  |
| CNc1cc(Nc2cccn([C@H]3C[C@@H](OC)C3)c2=O)nc2c(C(=O)N[C@H]3CC[C@@H]3OC)cnn12 [Compound I-253] | < 0.1 µM |  |
| CNc1cc(Nc2cccn(-c3ccc(C)nc3)c2=O)nc2c(C(=O)N[C@H]3CCC3(F)F)cnn12 [Compound I-325] | < 0.1 µM |  |
| CNc1cc(Nc2cccn([C@H]3CCCOC3)c2=O)nc2c(C(=O)NC3CCC3(F)F)cnn12 (some centres unmarked) [Compound I-312] | < 0.1 µM |  |
| CNc1cc(-c2cn([C@@H]3CCOC[C@@H]3OC)c3ncccc23)nc2c(C(=O)NC3CCC3(F)F)cnn12 (some centres unmarked) [Compound I-702] | < 0.1 µM |  |
| CNc1cc(Nc2cccn([C@@H]3CCCC[C@@H]3O)c2=O)nc2c(C(=O)NC3CC[C@@H]3F)cnn12 (some centres unmarked) [Compound I-209] | < 0.1 µM |  |
| CNc1cc(-c2cn([C@H]3CC(=O)N(C)C3)c3ncccc23)nc2c(C(=O)N[C@H]3CC[C@@H]3OC)cnn12 [Compound I-1024] | < 0.1 µM |  |
| CNc1cc(-c2cn([C@@H]3CCOC[C@@H]3OC)c3ncccc23)nc2c(C(=O)N[C@H]3CC[C@@H]3OC)cnn12 [Compound I-669] | < 0.1 µM |  |
| CNc1cc(Nc2cccn([C@H]3C[C@@H](OC)C3)c2=O)nc2c(C(=O)NC3CC[C@@H]3F)cnn12 (mixture of isomers) [Compound I-173] | < 0.1 µM |  |
| [2H]C([2H])([2H])O[C@H]1CCC1NC(=O)c1cnn2c(NC)cc(Nc3cccn([C@H]4[C@@H]5COC[C@@H]54)c3=O)nc12 (stereo partly drawn) [Compound I-102, 5-((1-((1R,5S,6r)-3-Oxabicyclo[3.1.0]hexan-6-yl)-2-oxo-1,2-dihydropyridin-3-yl)amino)-N-((trans-1,2)-2-(methoxy-d3)cyclobutyl)-7-(methylamino)pyrazolo[1,5-a]pyrimidine-3-carboxamide] |  | < 0.1 µM |
| CNc1cc(-c2cn([C@H]3C[C@@H](O)C3)c3ncccc23)nc2c(C(=O)NC3CCC3(F)F)cnn12 (some centres unmarked) [Compound I-677] | < 0.1 µM |  |
| CNc1cc(-c2cn([C@H]3COC[C@H]3F)c3ncccc23)nc2c(C(=O)N[C@H]3CC[C@H]3O)cnn12 [Compound I-574] | < 0.1 µM |  |
